Experimental data from patent US20090124672A1 (priority 2007, published 2009).

Target: T1, hALDH2 (recombinant human mitochondria ALDH) (Homo sapiens, UniProt P05091)
T1 sequence (P05091 18-517): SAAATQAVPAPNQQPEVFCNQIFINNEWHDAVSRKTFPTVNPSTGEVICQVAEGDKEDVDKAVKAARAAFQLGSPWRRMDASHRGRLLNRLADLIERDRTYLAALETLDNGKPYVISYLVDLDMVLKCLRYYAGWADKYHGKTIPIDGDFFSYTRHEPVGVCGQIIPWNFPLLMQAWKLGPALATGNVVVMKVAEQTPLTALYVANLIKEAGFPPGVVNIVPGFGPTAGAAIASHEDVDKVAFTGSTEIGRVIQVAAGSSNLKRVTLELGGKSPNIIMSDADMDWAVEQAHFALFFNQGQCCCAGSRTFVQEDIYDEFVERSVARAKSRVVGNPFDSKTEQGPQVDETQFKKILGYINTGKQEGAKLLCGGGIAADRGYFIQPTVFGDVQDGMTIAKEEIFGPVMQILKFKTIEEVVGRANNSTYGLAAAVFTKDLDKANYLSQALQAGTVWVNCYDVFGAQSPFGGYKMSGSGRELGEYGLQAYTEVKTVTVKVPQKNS
Assay: ALDH2 inhibition assay (NADH formation, formaldehyde substrate)
Format: biochemical
Settings: not given
Method: ALDH2 inhibition assays were performed in sodium phosphate buffer (50 mM, pH 7.4) containing 1.2 mM NAD^+ (Sigma N7004), 1 nM hALDH2 (recombinant human mitochondria ALDH), various concentrations of test compounds (from 0.03 nM to 1000 nM), and 0.15 mM freshly prepared formaldehyde solution (Ladd Research 20295). Reactions were initiated by the addition of formaldehyde and rates were recorded by monitoring NADH formation in a temperature controlled (25° C.) FluoroMax-2 Fluorimeter with excitation and emission wavelengths set at 340 and 460 nm, respectively. […] Normally, IC50 values were determined by fitting concentration-inhibition data to sigmoidal dose-response curves with two-floating parameters: IC50 and Hill coefficient. When tight binding situation was suspected, apparent Ki values were estimated by fitting dose-response data to Morrison's equation [Methods in Enzymology 63, 437-467, 1979].

Row | IC50 | Molecule
1 | 120 nM | O=c1c(-c2ccc(O)cc2)coc2cc(OCc3coc(-c4ccc(F)c(F)c4)n3)ccc12 [PT-15, 7-{[2-(3,4-difluorophenyl)(1,3-oxazol-4-yl)]methoxy}-3-(4-hydroxyphenyl)chromen-4-one]
2 | 47 nM | O=c1c(-c2ccc(O)cc2)coc2cc(OCc3coc(-c4ccc(F)cc4)n3)ccc12 [PT-16, 7-{[2-(4-fluorophenyl)(1,3-oxazol-4-yl)]methoxy}-3-(4-hydroxyphenyl)chromen-4-one]
3 | 573 nM | O=c1c(-c2ccc(O)cc2)coc2cc(OCc3coc(-c4ccc(Cl)cc4)n3)ccc12 [PT-17, 7-{[2-(4-chlorophenyl)(1,3-oxazol-4-yl)]methoxy}-3-(4-hydroxyphenyl)chromen-4-one]
4 | 160 nM | O=c1c(-c2ccc(O)cc2)coc2cc(OCc3noc(-c4ccccc4)n3)ccc12 [PT-24, 3-(4-hydroxyphenyl)-7-[(5-phenyl(1,2,4-oxadiazol-3-yl))methoxy]chromen-4-one]
5 | 4 nM | N#Cc1cccc(COc2ccc3c(=O)c(-c4ccc(O)cc4)coc3c2)c1 [PT-25, 3-{[3-(4-hydroxyphenyl)-4-oxochromen-7-yloxy]methyl}benzenecarbonitrile]
6 | 34 nM | O=c1c(-c2ccc(O)cc2)coc2cc(OCc3cccc(C(F)(F)F)c3)ccc12 [PT-26, 3-(4-hydroxyphenyl)-7-{[3-(trifluoromethyl)phenyl]methoxy}chromen-4-one]
7 | 58 nM | O=c1c(-c2ccc(O)cc2)coc2cc(OCc3cc(F)cc(C(F)(F)F)c3)ccc12 [PT-28, 7-{[3-fluoro-5-(trifluoromethyl)phenyl]methoxy}-3-(4-hydroxyphenyl)chromen-4-one]
8 | 10 nM | O=c1c(-c2ccc(O)cc2)coc2cc(OCc3noc(-c4cc(F)cc(C(F)(F)F)c4)n3)ccc12 [PT-29, 7-({5-[3-fluoro-5-(trifluoromethyl)phenyl](1,2,4-oxadiazol-3-yl)}methoxy)-3-(4-hydroxyphenyl)chromen-4-one]
9 | 100 nM | O=c1c(-c2ccc(O)cc2)coc2cc(OCc3noc(-c4ccc(F)c(C(F)(F)F)c4)n3)ccc12 [PT-30, 7-({5-[4-fluoro-3-(trifluoromethyl)phenyl](1,2,4-oxadiazol-3-yl)}methoxy)-3-(4-hydroxyphenyl)chromen-4-one]
10 | 20 nM | O=c1c(-c2ccc(O)cc2)coc2cc(OCc3noc(-c4cc(C(F)(F)F)ccc4C(F)(F)F)n3)ccc12 [PT-31, 7-({5-[2,5-bis(trifluoromethyl)phenyl](1,2,4-oxadiazol-3-yl)}methoxy)-3-(4-hydroxyphenyl)chromen-4-one]
11 | 1150 nM | C=CCOC(=O)c1cccc(-c2nc(COc3ccc4c(=O)c(-c5ccc(O)cc5)coc4c3)no2)c1 [PT-32, prop-2-enyl 3-(3-{[3-(4-hydroxyphenyl)-4-oxochromen-7-yloxy]methyl}-1,2,4-oxadiazol-5-yl)benzoate]
12 | 20 nM | CC(C)OC(=O)c1cccc(COc2ccc3c(=O)c(-c4ccc(O)cc4)coc3c2)c1 [PT-35, methylethyl 3-{[3-(4-hydroxyphenyl)-4-oxochromen-7-yloxy]methyl}benzoate]
13 | 170 nM | O=C(O)c1ccc(COc2ccc3c(=O)c(-c4ccc(O)cc4)coc3c2)cc1 [PT-36, 4-{[3-(4-hydroxyphenyl)-4-oxochromen-7-yloxy]methyl}benzoic acid]
14 | 380 nM | NC(=O)c1ccc(COc2ccc3c(=O)c(-c4ccc(O)cc4)coc3c2)cc1 [PT-37, 4-{[3-(4-hydroxyphenyl)-4-oxochromen-7-yloxy]methyl}benzamide]
15 | 600 nM | O=c1c(-c2ccc(O)cc2)coc2cc(OCc3noc(-c4ccc(C(F)(F)F)cc4)n3)ccc12 [PT-38, 3-(4-hydroxyphenyl)-7-({5-[4-(trifluoromethyl)phenyl](1,2,4-oxadiazol-3-yl)}methoxy)chromen-4-one]
16 | 130 nM | O=c1c(-c2ccc(O)cc2)coc2cc(OCc3noc(-c4cc(C(F)(F)F)cc(C(F)(F)F)c4)n3)ccc12 [PT-39, 7-({5-[3,5-bis(trifluoromethyl)phenyl](1,2,4-oxadiazol-3-yl)}methoxy)-3-(4-hydroxyphenyl)chromen-4-one]
17 | 22 nM | N#Cc1cccc(-c2nc(COc3ccc4c(=O)c(-c5ccc(O)cc5)coc4c3)no2)c1 [PT-40, 3-(3-{[3-(4-hydroxyphenyl)-4-oxochromen-7-yloxy]methyl}-1,2,4-oxadiazol-5-yl)benzenecarbonitrile]
18 | 10 nM | O=C(O)c1cccc(-c2nc(COc3ccc4c(=O)c(-c5ccc(O)cc5)coc4c3)no2)c1 [PT-41, 3-(3-{[3-(4-hydroxyphenyl)-4-oxochromen-7-yloxy]methyl}-1,2,4-oxadiazol-5-yl)benzoic acid]

Second part, the molecule before the results:

Row | Molecule | IC50
19 | COc1ccc(-c2nc(COc3ccc4c(=O)c(-c5ccc(O)cc5)coc4c3)no2)cc1C(F)(F)F | 20 nM
20 | 3-(4-hydroxyphenyl)-7-[(6-pyrazolyl(3-pyridyl))methoxy]chromen-4-one [PT-52] | 10 nM
21 | 7-{2-[4-(3-chlorophenyl)piperazinyl]ethoxy}-3-(4-hydroxyphenyl)chromen-4-one [PT-123] | 11 nM
22 | 7-{2-[4-(4-chlorophenyl)pyrazolyl]ethoxy}-3-(4-hydroxyphenyl)chromen-4-one [PT-51] | 110 nM
23 | 7-{3-[4-(4-chlorophenyl)pyrazolyl]propoxy}-3-(4-hydroxyphenyl)chromen-4-one [PT-106] | 110 nM
24 | Cc1nc(-c2ccc(C(F)(F)F)cc2)sc1COc1ccc2c(=O)c(-c3ccc(O)cc3)coc2c1 [PT-4, 3-(4-hydroxyphenyl)-7-({4-methyl-2-[4-(trifluoromethyl)phenyl](1,3-thiazol-5-yl)}methoxy)chromen-4-one] | 200 nM
25 | O=c1c(-c2ccc(O)cc2)coc2cc(OCc3coc(-c4cccc(C(F)(F)F)c4)n3)ccc12 [PT-12, 3-(4-hydroxyphenyl)-7-({2-[3-(trifluoromethyl)phenyl](1,3-oxazol-4-yl)}methoxy)chromen-4-one] | 3 nM
26 | O=c1c(-c2ccc(O)cc2)coc2cc(OCc3coc(-c4cc(F)cc(C(F)(F)F)c4)n3)ccc12 [PT-13, 7-({2-[5-fluoro-3-(trifluoromethyl)phenyl](1,3-oxazol-4-yl)}methoxy)-3-(4-hydroxyphenyl)chromen-4-one] | 20 nM
27 | O=c1c(-c2ccc(O)cc2)coc2cc(OCc3coc(-c4cc(F)cc(F)c4)n3)ccc12 [PT-14, 7-{[2-(3,5-difluorophenyl)(1,3-oxazol-4-yl)]methoxy}-3-(4-hydroxyphenyl)chromen-4-one] | 60 nM

Same assay, conditions: at 1 μM; read-out: hALDH2 inhibition (IC50 hALDH2 column)

Row | inhibition at 1 µM | Molecule
28 | 17% | N#Cc1ccc(-c2coc3cc(OCc4noc(-c5cc(F)cc(C(F)(F)F)c5)n4)ccc3c2=O)cc1 [PT-1, 4-[7-({5-[3-fluoro-5-(trifluoromethyl)phenyl](1,2,4-oxadiazol-3-yl)}methoxy)-4-oxochromen-3-yl]benzenecarbonitrile]
29 | 22% | CCOC(=O)c1cccc(-c2coc3cc(OCc4noc(-c5cc(F)cc(C(F)(F)F)c5)n4)ccc3c2=O)c1 [PT-3, ethyl 3-[7-({5-[3-fluoro-5-(trifluoromethyl)phenyl](1,2,4-oxadiazol-3-yl)}methoxy)-4-oxochromen-3-yl]benzoate]
30 | 0.19% | Cc1ccc(S(=O)(=O)Nc2ccc(-c3coc4cc(OCc5sc(-c6ccc(C(F)(F)F)cc6)nc5C)ccc4c3=O)cc2)cc1 [PT-5, 3-(4-{[(4-methylphenyl)sulfonyl]amino}phenyl)-7-({4-methyl-2-[4-(trifluoromethyl)phenyl](1,3-thiazol-5-yl)}methoxy)chromen-4-one]
31 | 16% | COC(=O)c1cccc(COc2ccc3c(=O)c(-c4ccc(OC)nc4)coc3c2)c1 [PT-6, methyl 3-{[3-(6-methoxy(3-pyridyl))-4-oxochromen-7-yloxy]methyl}benzoate]
32 | 75% | COC(=O)c1cccc(COc2ccc3c(=O)c(-c4ccc(CO)cc4)coc3c2)c1 [PT-7, methyl 3-({3-[4-(hydroxymethyl)phenyl]-4-oxochromen-7-yloxy}methyl)benzoate]
33 | 57% | CS(=O)(=O)Nc1ccc(-c2coc3cc(OCc4nc(-c5cc(F)cc(C(F)(F)F)c5)no4)ccc3c2=O)cc1 [PT-8, 7-({3-[5-fluoro-3-(trifluoromethyl)phenyl](1,2,4-oxadiazol-5-yl)}methoxy)-3-{4-[(methylsulfonyl)amino]phenyl}chromen-4-one]
34 | 24% | N#Cc1cc(-c2coc3cc(OCc4noc(-c5cc(F)cc(C(F)(F)F)c5)n4)ccc3c2=O)ccc1F [PT-9, 2-fluoro-5-[7-({5-[5-fluoro-3-(trifluoromethyl)phenyl](1,2,4-oxadiazol-3-yl)}methoxy)-4-oxochromen-3-yl]benzenecarbonitrile]
35 | 60% | CCOC(=O)COc1ccc(-c2coc3cc(OCC(=O)OCC)ccc3c2=O)cc1 [PT-10, ethyl 2-(3-{4-[(ethoxycarbonyl)methoxy]phenyl}-4-oxochromen-7-yloxy)acetate]
